Experimental data as given in the NIST ThermoML archive (doi:10.1016/j.jct.2014.10.008).

Assay: osmotic coefficient (dimensionless); mn = molality of the nth substance listed, in mol/kg
Details: 101 kPa, Liquid, Vapor pressure osmometer - Knauer K-7000

CCCC[N+]1(C)CCCC1.N#CN=C=[N-] [1-butyl-1-methylpyrrolidinium dicyanamide] + O
Details | osmotic coefficient
313.15 K, m1 = 0.0272 | 0.915
313.15 K, m1 = 0.0491 | 0.849
313.15 K, m1 = 0.0864 | 0.734
313.15 K, m1 = 0.1088 | 0.697
313.15 K, m1 = 0.1499 | 0.68
313.15 K, m1 = 0.1968 | 0.627
313.15 K, m1 = 0.3968 | 0.503
313.15 K, m1 = 0.5057 | 0.471
313.15 K, m1 = 0.7825 | 0.433
313.15 K, m1 = 0.9665 | 0.416
313.15 K, m1 = 1.474 | 0.373
323.15 K, m1 = 0.0272 | 0.982
323.15 K, m1 = 0.0512 | 0.879
323.15 K, m1 = 0.0928 | 0.855
323.15 K, m1 = 0.112 | 0.846
323.15 K, m1 = 0.1499 | 0.81
323.15 K, m1 = 0.1968 | 0.747
323.15 K, m1 = 0.2912 | 0.673
323.15 K, m1 = 0.3968 | 0.656
323.15 K, m1 = 0.5057 | 0.608
323.15 K, m1 = 0.7825 | 0.538
323.15 K, m1 = 0.9665 | 0.48
323.15 K, m1 = 1.488 | 0.405
328.15 K, m1 = 0.024 | 1.05
328.15 K, m1 = 0.0896 | 0.859
328.15 K, m1 = 0.1248 | 0.815
328.15 K, m1 = 0.2032 | 0.747
328.15 K, m1 = 0.2913 | 0.682
328.15 K, m1 = 0.4017 | 0.642
328.15 K, m1 = 0.5041 | 0.585
328.15 K, m1 = 0.7825 | 0.559
328.15 K, m1 = 0.973 | 0.498
328.15 K, m1 = 1.496 | 0.424

CCCCCCCC[n+]1ccn(C)c1.[Cl-] [1-methyl-3-octylimidazolium chloride] + O
Details | osmotic coefficient
313.15 K, m1 = 0.0346 | 1.05
313.15 K, m1 = 0.0491 | 1
313.15 K, m1 = 0.0809 | 0.816
313.15 K, m1 = 0.1329 | 0.727
313.15 K, m1 = 0.182 | 0.681
313.15 K, m1 = 0.2455 | 0.617
313.15 K, m1 = 0.2917 | 0.555
313.15 K, m1 = 0.3582 | 0.531
313.15 K, m1 = 0.4679 | 0.48
313.15 K, m1 = 0.5228 | 0.45
313.15 K, m1 = 0.6037 | 0.424
313.15 K, m1 = 0.7323 | 0.383
313.15 K, m1 = 0.8825 | 0.343
313.15 K, m1 = 1.072 | 0.317
313.15 K, m1 = 1.356 | 0.289
313.15 K, m1 = 1.771 | 0.266
323.15 K, m1 = 0.0419 | 1.1
323.15 K, m1 = 0.052 | 1.06
323.15 K, m1 = 0.0858 | 0.946
323.15 K, m1 = 0.1118 | 0.918
323.15 K, m1 = 0.182 | 0.726
323.15 K, m1 = 0.2455 | 0.675
323.15 K, m1 = 0.2917 | 0.633
323.15 K, m1 = 0.3582 | 0.587
323.15 K, m1 = 0.4679 | 0.54
323.15 K, m1 = 0.5228 | 0.498
323.15 K, m1 = 0.6037 | 0.464
323.15 K, m1 = 0.7323 | 0.424
323.15 K, m1 = 0.8825 | 0.384
323.15 K, m1 = 1.072 | 0.345
323.15 K, m1 = 1.356 | 0.31
323.15 K, m1 = 1.771 | 0.3
328.15 K, m1 = 0.0361 | 1.14
328.15 K, m1 = 0.0506 | 1.12
328.15 K, m1 = 0.0852 | 1.08
328.15 K, m1 = 0.1329 | 1.07
328.15 K, m1 = 0.1791 | 1.02
328.15 K, m1 = 0.2484 | 0.962
328.15 K, m1 = 0.2947 | 0.957
328.15 K, m1 = 0.3568 | 0.929
328.15 K, m1 = 0.468 | 0.906
328.15 K, m1 = 0.5243 | 0.875
328.15 K, m1 = 0.6052 | 0.844
328.15 K, m1 = 0.7352 | 0.753
328.15 K, m1 = 0.8826 | 0.689
328.15 K, m1 = 1.072 | 0.624
328.15 K, m1 = 1.359 | 0.556
328.15 K, m1 = 1.774 | 0.479
